Data on one substance can be found in US8101576B2, “Compounds and their effects on feeding behaviour” (priority 2006, dated 2012).

The nature of the assay: Inhibition of food intake, subcutaneous injection to fasted mice. The format is in vivo, C57BL/6 mice. The conditions noted are these: 20 nmoles/kg. The protocol: Animals: All animal procedures were approved by the British Home Office Animals (Scientific Procedures) Act 1986 (Project License number 70/5516). Male C57BL/6 mice and male Wistar rats were maintained in individual cages under controlled temperature (21-23° C.) with ad libitum access to standard chow (RMI diet, SDS Ltd, Witham, Essex, UK) and to water. The light cycle was 12 hours light and 12 hours dark with ‘dawn’ at 07:00, lights full on at 07:30, ‘dusk’ at 19:00 with lights off at 19:30. These times were fixed in the animal facility, All animals were handled almost daily for on average nine days prior to the first study. During the acclimatization period, mice received two saline injections at least two days apart in order to further acclimatize to the procedure on the study days. It was found in rats that minimising the number of injections provided an optimal response, and so acclimatization injections were not used.
Study protocol: C57BL/6 mice (20-35 g) were injected with the peptide under investigation following a 20-hour fast. Wistar rats were injected following a 24-hour fast. Typically 6 to 10 rodents were used per experimental group. Injections were typically administered at 9:00. A pre-weighed quantity of chow was presented immediately after injection. The remaining food was measured at regular time intervals (e.g. 1, 2, 3, 4, 6, 8, 24, 32 and 48 hours following injection) and food intake calculated.
The feeding effect of the following analogue of oxyntomodulin was investigated: PEPTIDE NO: 355 [SEQ ID NO:355]. The analogue was administered at a dose of […] by subcutaneous injection to a group of fasted mice. A further group was administered saline (control). Mean cumulative food intake over the course of 4 hours is shown in comparison to saline in FIG. 40. […] The food intake suppression continues for the whole 4 hour period; that is to say that the food intake over the 4 hour period is lower than in the saline control.
The feeding effect of the following analogue of oxyntomodulin was investigated: PEPTIDE NO: 130 [SEQ ID NO: 130]. […]

Square brackets hold non-standard residues; d marks the D form. Ends that are not written are not given here. A value given as a limit tells only on which side of the number the result lay.

As to “D-His Ala Gln Gly Thr Phe Thr Ser Asp Tyr Ser Lys Tyr Leu Glu Gln Glu Leu Val Lys Tyr Phe Ile Gln Trp Leu Lys Asn Ala Gly Pro Ser Lys Asn Asn Ile Ala ([dH]AQGTFTSDYSKYLEQELVKYFIQWLKNAGPSKNNIA) [PEPTIDE NO: 130]”, the “food intake suppression continues for” value (24 hours observed) was at least 24 h. For the setting “over 24 hours”, the “Mean cumulative food intake in comparison to saline control” value is “potent and long acting suppression of food intake”; the “food intake in comparison to control group treated with native oxyntomodulin” value is on record as “lower than in the control group treated with native oxyntomodulin”.
